Measured values taken from the NIST ThermoML archive (doi:10.1016/j.fluid.2016.10.005).
± gives the expanded uncertainty stated by the source.

Experiment: molar heat capacity at constant pressure; mn = molality of the nth substance listed, in mol/kg
Settings: 101 kPa, Liquid, DSC

CCCCCOCCOCCOCCO [ethanol, 2-[2-[2-(pentyloxy)ethoxy]ethoxy]-] + O
molar heat capacity at constant pressure [J/K/mol]
Settings | 278.15 K | 283.15 K | 288.15 K | 293.15 K | 298.15 K | 308.15 K | 318.15 K | 328.15 K | 333.15 K
m1 = 0.0166 | 75.93 ± 2.9 | 75.77 ± 2.9 | 75.66 ± 2.9 | 75.59 ± 2.9 | 75.56 ± 2.9 | 75.53 ± 2.9 | 75.56 ± 2.9 | 75.61 ± 2.9 | 75.66 ± 2.9
m1 = 0.0321 | 76.16 ± 3 | 76 ± 2.9 | 75.9 ± 2.9 | 75.83 ± 2.9 | 75.8 ± 2.9 | 75.78 ± 2.9 | 75.79 ± 2.9 | 75.85 ± 2.9 | 75.9 ± 2.9
m1 = 0.0392 | 76.27 ± 3 | 76.11 ± 2.9 | 76 ± 2.9 | 75.94 ± 2.9 | 75.91 ± 2.9 | 75.89 ± 2.9 | 75.9 ± 2.9 | 75.96 ± 2.9 | 76 ± 2.9
m1 = 0.06 | 76.59 ± 3 | 76.43 ± 3 | 76.32 ± 3 | 76.26 ± 3 | 76.22 ± 3 | 76.2 ± 3 | 76.21 ± 3 | 76.27 ± 3 | 76.32 ± 3
m1 = 0.0876 | 77.01 ± 3 | 76.85 ± 3 | 76.74 ± 3 | 76.68 ± 3 | 76.64 ± 3 | 76.62 ± 3 | 76.63 ± 3 | 76.68 ± 3 | 76.74 ± 3
m1 = 0.1214 | 77.52 ± 3 | 77.36 ± 3 | 77.26 ± 3 | 77.2 ± 3 | 77.15 ± 3 | 77.13 ± 3 | 77.14 ± 3 | 77.2 ± 3 | 77.24 ± 3
m1 = 0.1388 | 77.79 ± 3 | 77.63 ± 3 | 77.53 ± 3 | 77.47 ± 3 | 77.42 ± 3 | 77.4 ± 3 | 77.41 ± 3 | 77.47 ± 3 | 77.51 ± 3
m1 = 0.1661 | 78.19 ± 3 | 78.05 ± 3 | 77.95 ± 3 | 77.9 ± 3 | 77.85 ± 3 | 77.81 ± 3 | 77.85 ± 3 | 77.89 ± 3 | 77.91 ± 3
m1 = 0.1861 | 78.49 ± 3 | 78.35 ± 3 | 78.26 ± 3 | 78.21 ± 3 | 78.16 ± 3 | 78.12 ± 3 | 78.21 ± 3 | 78.2 ± 3 | 78.21 ± 3
m1 = 0.2119 | 78.88 ± 3.1 | 78.75 ± 3.1 | 78.66 ± 3 | 78.62 ± 3 | 78.57 ± 3 | 78.55 ± 3 | 78.65 ± 3 | 78.59 ± 3 | 78.59 ± 3
m1 = 0.2272 | 79.1 ± 3.1 | 78.99 ± 3.1 | 78.91 ± 3.1 | 78.86 ± 3.1 | 78.81 ± 3.1 | 78.84 ± 3.1 | 78.89 ± 3.1 | 78.81 ± 3.1 | 78.78 ± 3.1
m1 = 0.2499 | 79.44 ± 3.1 | 79.34 ± 3.1 | 79.27 ± 3.1 | 79.22 ± 3.1 | 79.18 ± 3.1 | 79.27 ± 3.1 | 79.21 ± 3.1 | 79.1 ± 3.1 | 79.08 ± 3.1
m1 = 0.2726 | 79.77 ± 3.1 | 79.7 ± 3.1 | 79.64 ± 3.1 | 79.59 ± 3.1 | 79.56 ± 3.1 | 79.68 ± 3.1 | 79.49 ± 3.1 | 79.36 ± 3.1 | 79.36 ± 3.1
m1 = 0.2949 | 80.1 ± 3.1 | 80.06 ± 3.1 | 80.02 ± 3.1 | 79.97 ± 3.1 | 79.97 ± 3.1 | 80.07 ± 3.1 | 79.75 ± 3.1 | 79.59 ± 3.1 | 79.62 ± 3.1
m1 = 0.314 | 80.39 ± 3.1 | 80.37 ± 3.1 | 80.34 ± 3.1 | 80.32 ± 3.1 | 80.49 ± 3.1 | 80.32 ± 3.1 | 79.96 ± 3.1 | 79.8 ± 3.1 | 79.84 ± 3.1
m1 = 0.3353 | 80.72 ± 3.1 | 80.73 ± 3.1 | 80.72 ± 3.1 | 80.85 ± 3.1 | 80.89 ± 3.1 | 80.6 ± 3.1 | 80.22 ± 3.1 | 80.05 ± 3.1 | 80.1 ± 3.1
m1 = 0.3562 | 81.05 ± 3.1 | 81.08 ± 3.1 | 81.12 ± 3.1 | 81.34 ± 3.2 | 81.24 ± 3.1 | 80.83 ± 3.1 | 80.45 ± 3.1 | 80.3 ± 3.1 | –
m1 = 0.3851 | 81.51 ± 3.2 | 81.58 ± 3.2 | 81.77 ± 3.2 | 81.87 ± 3.2 | 81.68 ± 3.2 | 81.19 ± 3.1 | 80.78 ± 3.1 | 80.63 ± 3.1 | –
m1 = 0.4069 | 81.92 ± 3.2 | 82.17 ± 3.2 | 82.36 ± 3.2 | 82.27 ± 3.2 | 81.99 ± 3.2 | 81.4 ± 3.2 | 81.01 ± 3.1 | 80.87 ± 3.1 | –
m1 = 0.426 | 82.31 ± 3.2 | 82.58 ± 3.2 | 82.73 ± 3.2 | 82.55 ± 3.2 | 82.25 ± 3.2 | 81.62 ± 3.2 | 81.22 ± 3.1 | 81.05 ± 3.1 | –
m1 = 0.4405 | 82.64 ± 3.2 | 82.93 ± 3.2 | 82.99 ± 3.2 | 82.77 ± 3.2 | 82.43 ± 3.2 | 81.77 ± 3.2 | 81.37 ± 3.2 | 81.17 ± 3.1 | –
m1 = 0.4693 | 83.38 ± 3.2 | 83.6 ± 3.2 | 83.45 ± 3.2 | 83.15 ± 3.2 | 82.79 ± 3.2 | 82.05 ± 3.2 | 81.69 ± 3.2 | 81.49 ± 3.2 | –
m1 = 0.4858 | 83.82 ± 3.2 | 83.98 ± 3.3 | 83.71 ± 3.2 | 83.35 ± 3.2 | 82.97 ± 3.2 | 82.23 ± 3.2 | 81.84 ± 3.2 | 81.65 ± 3.2 | –
m1 = 0.5111 | 84.48 ± 3.3 | 84.45 ± 3.3 | 84.09 ± 3.3 | 83.67 ± 3.2 | 83.27 ± 3.2 | 82.5 ± 3.2 | 82.12 ± 3.2 | 81.93 ± 3.2 | –
m1 = 0.5381 | 85.09 ± 3.3 | 84.88 ± 3.3 | 84.46 ± 3.3 | 84 ± 3.3 | 83.58 ± 3.2 | 82.8 ± 3.2 | 82.41 ± 3.2 | 82.22 ± 3.2 | 82.29 ± 3.2
m1 = 0.5586 | 85.48 ± 3.3 | 85.2 ± 3.3 | 84.75 ± 3.3 | 84.26 ± 3.3 | 83.82 ± 3.2 | 83.04 ± 3.2 | 82.64 ± 3.2 | 82.43 ± 3.2 | 82.51 ± 3.2
m1 = 0.5849 | 85.92 ± 3.3 | 85.58 ± 3.3 | 85.09 ± 3.3 | 84.59 ± 3.3 | 84.14 ± 3.3 | 83.34 ± 3.2 | 82.92 ± 3.2 | 82.72 ± 3.2 | 82.8 ± 3.2
m1 = 0.6026 | 86.2 ± 3.3 | 85.82 ± 3.3 | 85.31 ± 3.3 | 84.76 ± 3.3 | 84.33 ± 3.3 | 83.52 ± 3.2 | 83.11 ± 3.2 | 82.91 ± 3.2 | 83 ± 3.2
m1 = 0.6299 | 86.63 ± 3.4 | 86.13 ± 3.3 | 85.61 ± 3.3 | 85.06 ± 3.3 | 84.6 ± 3.3 | 83.81 ± 3.2 | 83.39 ± 3.2 | 83.19 ± 3.2 | 83.28 ± 3.2
m1 = 0.668 | 87.17 ± 3.4 | 86.57 ± 3.4 | 86.02 ± 3.3 | 85.47 ± 3.3 | 85 ± 3.3 | 84.22 ± 3.3 | 83.79 ± 3.2 | 83.6 ± 3.2 | 83.67 ± 3.2
m1 = 0.7037 | 87.62 ± 3.4 | 86.92 ± 3.4 | 86.38 ± 3.3 | 85.83 ± 3.3 | 85.34 ± 3.3 | 84.59 ± 3.3 | 84.15 ± 3.3 | 83.97 ± 3.3 | 84.02 ± 3.3
m1 = 0.731 | 87.93 ± 3.4 | 87.19 ± 3.4 | 86.64 ± 3.4 | 86.08 ± 3.3 | 85.59 ± 3.3 | 84.86 ± 3.3 | 84.42 ± 3.3 | 84.23 ± 3.3 | 84.3 ± 3.3
m1 = 0.7714 | 88.33 ± 3.4 | 87.59 ± 3.4 | 87 ± 3.4 | 86.43 ± 3.3 | 85.97 ± 3.3 | 85.25 ± 3.3 | 84.81 ± 3.3 | 84.65 ± 3.3 | 84.71 ± 3.3
m1 = 0.8141 | 88.74 ± 3.4 | 88.03 ± 3.4 | 87.41 ± 3.4 | 86.86 ± 3.4 | 86.39 ± 3.3 | 85.68 ± 3.3 | 85.26 ± 3.3 | 85.09 ± 3.3 | 85.14 ± 3.3
m1 = 0.8293 | 88.85 ± 3.4 | 88.14 ± 3.4 | 87.53 ± 3.4 | 86.96 ± 3.4 | 86.5 ± 3.4 | 85.79 ± 3.3 | 85.38 ± 3.3 | 85.24 ± 3.3 | 85.28 ± 3.3
m1 = 0.8679 | 89.21 ± 3.5 | 88.51 ± 3.4 | 87.87 ± 3.4 | 87.32 ± 3.4 | 86.88 ± 3.4 | 86.14 ± 3.3 | 85.78 ± 3.3 | 85.64 ± 3.3 | 85.68 ± 3.3
m1 = 0.9125 | 89.61 ± 3.5 | 88.91 ± 3.4 | 88.26 ± 3.4 | 87.74 ± 3.4 | 87.28 ± 3.4 | 86.56 ± 3.4 | 86.22 ± 3.3 | 86.09 ± 3.3 | 86.13 ± 3.3
m1 = 0.9573 | 90.05 ± 3.5 | 89.36 ± 3.5 | 88.69 ± 3.4 | 88.18 ± 3.4 | 87.71 ± 3.4 | 87 ± 3.4 | 86.71 ± 3.4 | 86.56 ± 3.4 | 86.62 ± 3.4
